Source: US20060058374A1, “Urotensin II receptor agents” (priority 2002, published 2006)

Columns and labels:
Format in all cases: cell-based
Acetylcholine m1 = target: T1, Acetylcholine m1 (Homo sapiens, UniProt P11229); test: R-SAT assay, Acetylcholine m1
T1 construct: expressed in transfected cells; host or cells: NIH3T3
Procedure: (§1) The test compound of Formula III was screened according to a modification of the method described in U.S. Pat. No. 5,912,312. The method, herein referred to as Method 1, consists of the following:
(§2) Receptor Selection and Amplification (R-SAT) Assays.
(§3) R-SAT assays were performed with minor modifications from that previously described (6). Briefly, NIH3T3 cells were grown in tissue culture treated rollerbottles to 40-50% confluence. Cells were transfected for 12-16 hours with plasmid DNAs using superfect (Qiagen Inc.) as per manufacture's protocols. R-SAT's were generally performed with 10 μg/rollerbottle of receptor and 50 μg/rollerbottle of Beta-galactosidase plasmid DNA. All receptor and G-protein constructs used were in the PSI mammalian expression vector (Promega Inc.). The transfected cells were then trypsinized and frozen in DMEM containing 10% DMSO. Frozen cells were later thawed, plated at 10,000-40,000 cells per well of a 96 ½ area plate that contained drug. […] Media was then removed from the plates and marker gene activity was measured by the addition of the beta-galactosidase substrate ONPG (in PBS with 5% NP-40). The resulting colorimetric reaction was measured in a spectrophotometric plate reader (Titertek Inc.) at […].
(§4) EC50, IC50 and Ki are presented as the negative of the calculated potency in Molar.

Acetylcholine m3 = target: T2, Acetylcholine m3 (Homo sapiens, UniProt P20309); test: R-SAT assay, Acetylcholine m3
T2 construct: expressed in transfected cells; host or cells: NIH3T3
Procedure: as §1, §2, §3, §4

Acetylcholine m5 = target: T3, Acetylcholine m5 (Homo sapiens, UniProt P08912); test: R-SAT assay, Acetylcholine m5
T3 construct: expressed in transfected cells; host or cells: NIH3T3
T3 sequence (P08912 1-532): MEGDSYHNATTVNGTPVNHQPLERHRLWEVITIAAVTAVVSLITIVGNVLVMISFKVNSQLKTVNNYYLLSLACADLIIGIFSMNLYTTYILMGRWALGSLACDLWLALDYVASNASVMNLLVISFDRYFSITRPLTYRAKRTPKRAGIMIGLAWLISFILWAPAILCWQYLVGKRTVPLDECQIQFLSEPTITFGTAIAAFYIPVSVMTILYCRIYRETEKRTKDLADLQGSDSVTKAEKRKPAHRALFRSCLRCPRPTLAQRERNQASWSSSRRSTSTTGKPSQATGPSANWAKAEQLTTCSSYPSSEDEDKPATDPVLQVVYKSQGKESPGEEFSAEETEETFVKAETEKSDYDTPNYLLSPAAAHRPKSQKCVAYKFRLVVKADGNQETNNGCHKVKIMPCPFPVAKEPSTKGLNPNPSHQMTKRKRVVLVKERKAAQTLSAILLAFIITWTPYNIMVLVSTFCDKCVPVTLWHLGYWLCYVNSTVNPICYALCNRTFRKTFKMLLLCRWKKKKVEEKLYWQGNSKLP
Procedure: as §1, §2
(§5) R-SAT assays were performed with minor modifications from that previously described (6). Briefly, NIH3T3 cells were grown in tissue culture treated rollerbottles to 40-50% confluence. Cells were transfected for 12-16 hours with plasmid DNAs using superfect (Qiagen Inc.) as per manufacture's protocols. R-SAT's were generally performed with 10 μg/rollerbottle of receptor and 50 μg/rollerbottle of Beta-galactosidase plasmid DNA. All receptor and G-protein constructs used were in the PSI mammalian expression vector (Promega Inc.). The transfected cells were then trypsinized and frozen in DMEM containing 10% DMSO. Frozen cells were later thawed, plated at 10,000-40,000 cells per well of a 96 ½ area plate that contained drug. Cells were then grown in a humidified atmosphere with 5% ambient CO2 for five days. Media was then removed from the plates and marker gene activity was measured by the addition of the beta-galactosidase substrate ONPG (in PBS with 5% NP-40). The resulting colorimetric reaction was measured in a spectrophotometric plate reader (Titertek Inc.) at […].
as §4

Dopamine D2 = target: T4, Dopamine D2 (Homo sapiens, UniProt P14416); test: R-SAT assay, Dopamine D2
T4 construct: expressed in transfected cells; host or cells: NIH3T3
Procedure: as §1, §2, §3, §4

Serotonin 5HT-1E = target: T5, Serotonin 5HT-1E (Homo sapiens, UniProt P28566); test: R-SAT assay, Serotonin 5HT-1E; conditions: percent maximal activation relative to control compound
T5 construct: expressed in transfected cells; host or cells: NIH3T3
Procedure: as §1, §2, §3, §4

Serotonin 5HT2a = target: T6, Serotonin 5HT2a (Homo sapiens, UniProt P28223); test: R-SAT assay, Serotonin 5HT2a
T6 construct: expressed in transfected cells; host or cells: NIH3T3
Procedure: as §1, §2, §3, §4

Serotonin 5HT2b = target: T7, Serotonin 5HT2b (Homo sapiens, UniProt P41595); test: R-SAT assay, Serotonin 5HT2b
T7 construct: expressed in transfected cells; host or cells: NIH3T3
Procedure: as §1, §2, §5, §4

Serotonin 5HT6 = target: T8, Serotonin 5HT6 (Homo sapiens, UniProt P50406); test: R-SAT assay, Serotonin 5HT6; conditions: percent maximal activation relative to control compound
T8 construct: expressed in transfected cells; host or cells: NIH3T3
Procedure: as §1, §2, §3, §4

Histamine H2 = target: T9, Histamine H2 (Homo sapiens, UniProt P25021); test: R-SAT assay, Histamine H2
T9 construct: expressed in transfected cells; host or cells: NIH3T3
Procedure: as §1, §2, §3, §4

Beta Adrenergic 1 = target: T10, Beta Adrenergic 1 (Homo sapiens, UniProt P08588); test: R-SAT assay, Beta Adrenergic 1; conditions: percent maximal activation relative to control compound
T10 construct: expressed in transfected cells; host or cells: NIH3T3
Procedure: as §1, §2, §3, §4

SST2 = target: T11, SST2 (Homo sapiens, UniProt P30874); test: R-SAT assay, SST2; conditions: percent maximal activation relative to control compound
T11 construct: expressed in transfected cells; host or cells: NIH3T3
Procedure: as §1, §2, §3, §4

SST5 = target: T12, SST5 (Homo sapiens, UniProt P35346); test: R-SAT assay, SST5; conditions: percent maximal activation relative to control compound
T12 construct: expressed in transfected cells; host or cells: NIH3T3
Procedure: as §1, §2, §3, §4

SST3 = target: T13, SST3 (Homo sapiens, UniProt P32745); test: R-SAT assay, SST3; conditions: percent maximal activation relative to control compound
T13 construct: expressed in transfected cells; host or cells: NIH3T3
Procedure: as §1, §2, §3, §4

CRF1 = target: T14, CRF1 (Homo sapiens, UniProt P34998); test: R-SAT assay, CRF1; conditions: percent maximal activation relative to control compound
T14 construct: expressed in transfected cells; host or cells: NIH3T3
Procedure: as §1, §2, §3, §4

CRF2a = target: T15, CRF2a (Homo sapiens, UniProt Q13324); test: R-SAT assay, CRF2a; conditions: percent maximal activation relative to control compound
T15 construct: expressed in transfected cells; host or cells: NIH3T3
Procedure: as §1, §2, §3, §4

k opioid = target: T16, k opioid (Homo sapiens, UniProt P41145); test: R-SAT assay, k opioid; conditions: percent maximal activation relative to control compound
T16 construct: expressed in transfected cells; host or cells: NIH3T3
Procedure: as §1, §2, §3, §4

CCKa = target: T17, CCKa (Homo sapiens, UniProt P32238); test: R-SAT assay, CCKa; conditions: percent maximal activation relative to control compound
T17 construct: expressed in transfected cells; host or cells: NIH3T3
Procedure: as §1, §2, §3, §4

Serotonin 5HT2c = target: T18, Serotonin 5HT2c (Homo sapiens, UniProt P28335); test: R-SAT assay, Serotonin 5HT2c; conditions: inverse agonist mode; percent maximal inhibition relative to repression of basal activity by a control standard compound
T18 construct: expressed in transfected cells; host or cells: NIH3T3
Procedure: as §1, §2, §3, §4

Histamine H1 = target: T19, Histamine H1 (Homo sapiens, UniProt P35367); test: R-SAT assay, Histamine H1; conditions: competitive antagonist mode; percent maximal inhibition relative to control standard compound
T19 construct: expressed in transfected cells; host or cells: NIH3T3 cells, receptor plasmid in PSI mammalian expression vector (Promega)
Procedure: as §1, §2, §3, §4

[1] = competitive antagonist mode, percent maximal inhibition relative to control standard compound
[2] = percent maximal activation relative to control compound
[3] = inverse agonist mode, percent maximal inhibition relative to repression of basal activity by a control standard compound

T7 sequence (P41595 whole entry): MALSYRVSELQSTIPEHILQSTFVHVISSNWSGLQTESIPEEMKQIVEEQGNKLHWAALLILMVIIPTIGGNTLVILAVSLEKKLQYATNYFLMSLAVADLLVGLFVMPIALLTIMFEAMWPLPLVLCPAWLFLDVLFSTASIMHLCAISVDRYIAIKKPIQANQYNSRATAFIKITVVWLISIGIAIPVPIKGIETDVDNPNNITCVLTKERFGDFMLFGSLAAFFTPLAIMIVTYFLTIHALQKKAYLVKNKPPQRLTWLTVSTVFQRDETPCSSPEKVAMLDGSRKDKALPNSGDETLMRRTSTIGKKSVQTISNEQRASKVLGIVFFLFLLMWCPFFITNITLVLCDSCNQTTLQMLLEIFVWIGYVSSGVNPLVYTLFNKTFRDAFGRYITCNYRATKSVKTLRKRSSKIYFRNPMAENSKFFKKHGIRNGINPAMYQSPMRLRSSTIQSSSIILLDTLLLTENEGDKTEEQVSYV
T4 sequence (P14416 whole entry): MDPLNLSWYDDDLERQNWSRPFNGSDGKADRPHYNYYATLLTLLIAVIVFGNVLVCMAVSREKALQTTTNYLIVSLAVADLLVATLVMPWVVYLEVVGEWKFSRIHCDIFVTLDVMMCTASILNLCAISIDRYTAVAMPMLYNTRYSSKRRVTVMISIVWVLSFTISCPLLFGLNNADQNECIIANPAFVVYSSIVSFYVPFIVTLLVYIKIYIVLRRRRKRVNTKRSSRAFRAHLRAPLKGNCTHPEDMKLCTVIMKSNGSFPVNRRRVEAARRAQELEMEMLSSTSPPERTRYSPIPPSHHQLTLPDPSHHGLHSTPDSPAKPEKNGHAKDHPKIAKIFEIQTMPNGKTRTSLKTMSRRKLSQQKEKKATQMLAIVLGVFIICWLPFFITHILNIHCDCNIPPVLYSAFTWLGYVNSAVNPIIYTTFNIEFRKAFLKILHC
T6 sequence (P28223 whole entry): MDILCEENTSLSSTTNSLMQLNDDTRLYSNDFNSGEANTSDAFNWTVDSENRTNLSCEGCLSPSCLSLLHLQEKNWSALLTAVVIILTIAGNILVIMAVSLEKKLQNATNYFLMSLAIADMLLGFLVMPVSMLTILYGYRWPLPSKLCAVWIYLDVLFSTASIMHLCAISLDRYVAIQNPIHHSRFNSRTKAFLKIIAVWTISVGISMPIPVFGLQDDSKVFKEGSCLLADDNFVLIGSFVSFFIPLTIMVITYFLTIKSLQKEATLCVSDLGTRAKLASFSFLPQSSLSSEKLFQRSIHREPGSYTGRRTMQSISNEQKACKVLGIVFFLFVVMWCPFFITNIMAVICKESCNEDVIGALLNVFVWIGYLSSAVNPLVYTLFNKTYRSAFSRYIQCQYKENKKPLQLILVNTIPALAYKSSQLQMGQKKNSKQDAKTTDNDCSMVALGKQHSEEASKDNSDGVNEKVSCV
T9 sequence (P25021 whole entry): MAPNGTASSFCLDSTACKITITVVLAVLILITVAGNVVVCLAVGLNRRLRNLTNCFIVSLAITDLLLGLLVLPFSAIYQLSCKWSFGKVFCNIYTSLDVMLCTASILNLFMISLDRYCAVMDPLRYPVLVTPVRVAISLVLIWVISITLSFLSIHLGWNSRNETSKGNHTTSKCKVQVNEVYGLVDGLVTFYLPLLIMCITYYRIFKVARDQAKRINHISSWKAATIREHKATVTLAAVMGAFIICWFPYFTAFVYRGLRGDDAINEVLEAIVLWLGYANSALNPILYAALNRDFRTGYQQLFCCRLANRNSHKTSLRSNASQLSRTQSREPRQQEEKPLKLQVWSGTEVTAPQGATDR
T1 sequence (P11229 whole entry): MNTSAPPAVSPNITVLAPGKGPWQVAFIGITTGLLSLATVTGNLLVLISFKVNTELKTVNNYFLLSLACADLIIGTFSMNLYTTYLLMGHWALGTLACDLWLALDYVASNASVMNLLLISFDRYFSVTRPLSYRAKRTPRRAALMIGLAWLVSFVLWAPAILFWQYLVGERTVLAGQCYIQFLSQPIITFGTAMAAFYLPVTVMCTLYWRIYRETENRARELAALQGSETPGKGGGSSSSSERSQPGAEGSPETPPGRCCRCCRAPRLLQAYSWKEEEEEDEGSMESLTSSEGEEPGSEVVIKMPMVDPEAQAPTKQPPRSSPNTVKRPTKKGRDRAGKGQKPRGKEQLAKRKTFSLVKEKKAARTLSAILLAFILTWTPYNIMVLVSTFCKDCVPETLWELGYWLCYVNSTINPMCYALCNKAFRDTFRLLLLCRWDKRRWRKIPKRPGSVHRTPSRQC
T2 sequence (P20309 whole entry): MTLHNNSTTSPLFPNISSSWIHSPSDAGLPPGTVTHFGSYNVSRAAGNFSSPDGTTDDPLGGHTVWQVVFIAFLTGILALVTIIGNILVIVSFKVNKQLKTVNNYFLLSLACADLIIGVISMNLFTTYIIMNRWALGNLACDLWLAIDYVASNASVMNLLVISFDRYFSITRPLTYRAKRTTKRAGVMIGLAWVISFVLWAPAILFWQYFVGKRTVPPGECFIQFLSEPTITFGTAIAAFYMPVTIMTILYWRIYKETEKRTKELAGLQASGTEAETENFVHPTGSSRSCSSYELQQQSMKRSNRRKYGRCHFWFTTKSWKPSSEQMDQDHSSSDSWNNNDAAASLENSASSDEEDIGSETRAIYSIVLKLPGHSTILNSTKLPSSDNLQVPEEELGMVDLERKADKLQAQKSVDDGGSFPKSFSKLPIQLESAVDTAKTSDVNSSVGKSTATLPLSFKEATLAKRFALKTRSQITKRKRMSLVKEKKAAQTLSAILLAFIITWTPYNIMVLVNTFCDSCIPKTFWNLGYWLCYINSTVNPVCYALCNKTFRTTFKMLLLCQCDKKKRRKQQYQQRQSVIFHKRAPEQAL
T19 sequence (P35367 whole entry): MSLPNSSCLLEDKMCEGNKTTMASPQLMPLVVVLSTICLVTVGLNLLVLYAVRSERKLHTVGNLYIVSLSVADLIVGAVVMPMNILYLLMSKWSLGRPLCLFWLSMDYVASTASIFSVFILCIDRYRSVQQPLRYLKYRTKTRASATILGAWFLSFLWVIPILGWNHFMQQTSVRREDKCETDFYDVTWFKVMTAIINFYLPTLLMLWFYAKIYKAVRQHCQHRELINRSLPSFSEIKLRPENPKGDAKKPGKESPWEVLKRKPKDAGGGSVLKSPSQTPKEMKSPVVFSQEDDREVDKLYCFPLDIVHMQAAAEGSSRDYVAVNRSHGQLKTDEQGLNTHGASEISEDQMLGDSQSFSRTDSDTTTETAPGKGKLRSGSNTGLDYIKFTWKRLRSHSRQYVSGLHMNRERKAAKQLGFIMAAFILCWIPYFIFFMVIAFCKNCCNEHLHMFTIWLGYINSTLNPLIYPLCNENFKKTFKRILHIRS
T15 sequence (Q13324 whole entry): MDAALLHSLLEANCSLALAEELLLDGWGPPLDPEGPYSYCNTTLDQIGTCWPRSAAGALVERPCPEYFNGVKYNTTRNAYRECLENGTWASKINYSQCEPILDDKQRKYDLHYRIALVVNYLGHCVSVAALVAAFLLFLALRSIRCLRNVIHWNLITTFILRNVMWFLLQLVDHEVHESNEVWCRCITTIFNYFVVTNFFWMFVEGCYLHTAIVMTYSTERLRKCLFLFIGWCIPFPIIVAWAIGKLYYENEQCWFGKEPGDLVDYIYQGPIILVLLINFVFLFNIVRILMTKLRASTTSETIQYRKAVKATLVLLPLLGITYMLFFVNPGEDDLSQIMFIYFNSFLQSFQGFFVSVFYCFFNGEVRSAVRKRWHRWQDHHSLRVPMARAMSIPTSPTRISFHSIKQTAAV
T14 sequence (P34998 24-415): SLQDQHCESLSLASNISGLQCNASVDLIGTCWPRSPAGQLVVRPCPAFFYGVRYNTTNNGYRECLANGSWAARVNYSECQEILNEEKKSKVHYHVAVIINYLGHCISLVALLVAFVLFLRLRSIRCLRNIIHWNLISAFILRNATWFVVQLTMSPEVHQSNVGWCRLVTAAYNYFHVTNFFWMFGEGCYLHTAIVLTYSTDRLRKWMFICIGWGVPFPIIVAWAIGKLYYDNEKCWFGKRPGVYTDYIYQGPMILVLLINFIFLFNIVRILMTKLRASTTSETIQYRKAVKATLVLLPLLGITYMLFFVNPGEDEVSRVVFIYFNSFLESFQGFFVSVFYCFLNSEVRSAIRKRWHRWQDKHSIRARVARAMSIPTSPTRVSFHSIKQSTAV
T17 sequence (P32238 whole entry): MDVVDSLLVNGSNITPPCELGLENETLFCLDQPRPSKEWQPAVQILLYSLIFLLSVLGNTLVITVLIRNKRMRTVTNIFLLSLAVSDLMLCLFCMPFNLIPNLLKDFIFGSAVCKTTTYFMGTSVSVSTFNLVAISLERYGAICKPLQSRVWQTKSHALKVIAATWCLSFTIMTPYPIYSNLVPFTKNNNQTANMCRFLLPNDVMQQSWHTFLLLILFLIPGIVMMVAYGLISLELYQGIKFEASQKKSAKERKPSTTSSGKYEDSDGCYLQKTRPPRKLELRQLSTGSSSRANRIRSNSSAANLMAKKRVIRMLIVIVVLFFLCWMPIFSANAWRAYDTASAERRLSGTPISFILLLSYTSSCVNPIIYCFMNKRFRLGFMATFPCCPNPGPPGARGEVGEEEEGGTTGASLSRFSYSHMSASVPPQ
T13 sequence (P32745 whole entry, species assumed): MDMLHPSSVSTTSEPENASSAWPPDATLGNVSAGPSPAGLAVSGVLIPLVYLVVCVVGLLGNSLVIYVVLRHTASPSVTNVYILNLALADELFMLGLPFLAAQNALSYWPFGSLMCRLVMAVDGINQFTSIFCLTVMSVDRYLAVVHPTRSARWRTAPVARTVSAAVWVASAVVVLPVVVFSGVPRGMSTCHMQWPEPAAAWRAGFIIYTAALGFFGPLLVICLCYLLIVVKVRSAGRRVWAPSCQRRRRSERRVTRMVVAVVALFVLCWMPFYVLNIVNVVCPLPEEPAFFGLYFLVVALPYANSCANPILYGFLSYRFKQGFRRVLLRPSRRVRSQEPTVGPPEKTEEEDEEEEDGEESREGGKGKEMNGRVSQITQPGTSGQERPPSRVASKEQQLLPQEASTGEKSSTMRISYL

Compound: CN(C)CCC1(c2ccc(Cl)cc2)Cc2ccccc2C(=O)O1 (stereo not shown) [Formula III]
- Competitive Antagonist % Inh (Acetylcholine m1; [1]): 13%
- Agonist % Eff (Acetylcholine m1; [2]): 3%
- Competitive Antagonist % Inh (Acetylcholine m3; [1]): 28%
- Agonist % Eff (Acetylcholine m3; [2]): 1.8%
- Ki (Acetylcholine m5; competitive antagonist mode, negative of the calculated potency in Molar): > 2.24 µM
- Competitive Antagonist % Inh (Acetylcholine m5; [1]): 55%
- Agonist % Eff (Acetylcholine m5; [2]): 3.6%
- Competitive Antagonist % Inh (Dopamine D2; [1]): 13.2%
- Agonist % Eff (Dopamine D2; [2]): 13.6%
- Agonist % Eff (Serotonin 5HT-1E): 19%
- Inverse Agonist % Inh (Serotonin 5HT2a; [3]): 11.9%
- Agonist % Eff (Serotonin 5HT2a; [2]): 58%
- Competitive Antagonist % Inh (Serotonin 5HT2b; [1]): 0%
- Inverse Agonist % Inh (Serotonin 5HT2b; [3]): 0%
- Agonist % Eff (Serotonin 5HT2b; [2]): 0%
- Agonist % Eff (Serotonin 5HT6): 0%
- Inverse Agonist % Inh (Histamine H2; [3]): 0%
- Agonist % Eff (Histamine H2; [2]): 0%
- Agonist % Eff (Beta Adrenergic 1): 0%
- Agonist % Eff (SST2): 0%
- Agonist % Eff (SST5): 0%
- Agonist % Eff (SST3): 0%
- Agonist % Eff (CRF1): 0%
- Agonist % Eff (CRF2a): 0%
- Agonist % Eff (k opioid): 0%
- Agonist % Eff (CCKa): 0%
- Inverse Agonist % Inh (Serotonin 5HT2c): 0%
- Competitive Antagonist % Inh (Histamine H1): 0%
